{"source": "patent US20250099427A1", "about": "“Drug and Method of Treating or Preventing Renal Disease Using Drug” (Showa University, priority 2018, published 2025)", "key": {"[1]": {"tested_on": "Acute Renal Failure Animal Model", "test": "Test using acute renal failure animal model (renal ischemia and reperfusion), renal function parameters", "assay_type": "in vivo, mouse", "details": "for Cer: creatinine clearance; for FENa: fractional excretion of sodium; for KW: kidney weight", "excerpt": "A male ddY strain mouse (30 g) was used as an experimental animal. Under anesthesia with isoflurane, the right flank was incised about 2 cm to expose the kidney. After ligating the renal arteries and veins and the ureter, the right kidney was isolated.\nA recovery period of 2 weeks was given, and then an acute renal failure mouse model was produced. Under anesthesia with isoflurane, the left abdomen was incised about 3 cm to expose the left kidney, and the fat around the renal arteries and veins was removed. The blood flow in the left renal arteries and veins was blocked using an atraumatic clip, and the kidney was left in ischemia for 45 minutes. The blood flow was then reperfused by removing the atraumatic clip, the kidney was returned to the abdominal cavity, and the flank was sutured. Mice similarly subjected to the steps other than the ischemia and reperfusion steps using the atraumatic clip were designated as a sham group (eight mice).\nAfter 15 minutes of the initiation of ischemia, the vehicle, SMTP-7, SMTP-27, SMTP-44D, and edaravone were continuously administered to the femoral vein for 30 minutes.\n24 hours after the ischemia and reperfusion processes, urine was collected for 24 hours using a metabolic cage, and the urinary output (UF; μL/min/kg) was measured. During collecting urine, only water was freely given. After urine collection, the body weight of each mouse was measured, and blood was collected from the abdominal aorta under anesthesia with isoflurane. After blood collection, the left kidney was isolated and the fat was removed in physiological saline. The kidney weight (KW; mg/g) was measured, and then the kidney was fixed in a 10% neutral buffered formalin solution for Hematoxylin Eosin (HE) staining.\nThe collected blood was centrifuged at 800×g for 15 minutes at 25° C. to collect serum. Further, the urine collected using a metabolic cage was also used to evaluate renal function. In order to evaluate parameters in the serum, blood urea nitrogen (BUN; mg/dL) was measured using a QuantiChrom Urea Assay Kit (Funakoshi Co., Ltd.). Serum creatinine concentration (Scr; mg/dL) and urinary creatinine concentration (Ucr; mg/dL) were measured using LabAssay (trademark) Creatinine (manufactured by Wako Pure Chemical Industries, Ltd.), and creatinine clearance (Ccr; mL/min/kg) was calculated. The concentrations of sodium in the serum and urine were measured using Fuji Dry Chem 7000 (manufactured by FUJIFILM Corporation), and fractional excretion of sodium (FENa; %) was calculated. Urinary albumin concentration (Ualb; mg/hr/kg) was measured using Albwel M (manufactured by Cosmo Bio Co., Ltd.).\nIn Table 11, the experimental results are expressed in mean±standard error in eight mice in each group. For comparison among multiple groups, firstly, one-way analysis of variance (ANOVA) was conducted, and then a Bonferroni test was conducted, if significant difference was recognized. Significant difference was recognized with a significance level of less than 5% (P<0.05)."}, "[2]": {"tested_on": "Acute Renal Disease (Cisplatin Nephropathy) Animal Model", "test": "Test using acute renal disease (cisplatin nephropathy) animal model, BUN and sCr", "assay_type": "in vivo, mouse", "details": "mean±SE", "protocol": "A male ddY strain mouse (30 to 40 g) was used as an experimental animal. Under anesthesia with isoflurane, cisplatin (20 mg/kg) was injected into the femoral vein at a constant rate over 15 minutes to induce nephropathy. 3 days later, blood was collected from the descending vena cava, and after separating serum, blood urea nitrogen (BUN) and serum creatinine (sCr) were measured to evaluate renal function. Further, the kidney was isolated after perfusion, RNA was extracted, reverse transcription was conducted, real-time RT-PCR was conducted using the produced cDNA as a template, and the effect on TNF-α mRNA expression in renal tissues was also studied. A group to which physiological saline was administered instead of cisplatin was designated as the sham group.\nIn order to study the timing of administration, a drug (10 mg/kg) was injected into the femoral vein at a constant rate simultaneously with cisplatin, or 1 or 2 days later. In order to study dose relationship, a drug (0.1 mg/kg, 1 mg/kg, or 10 mg/kg) was injected to the femoral vein at a constant rate.\nFurther, in order to study the effect on TNF-α mRNA expression and histopathological study, a drug (10 mg/kg) was similarly administered 1 day after administration of cisplatin.\nThe collected blood was centrifuged at 3000 rpm for 15 minutes, serum was separated, and BUN and sCr were measured. In the measurement, BUN was measured using Urea B-test Wako (manufactured by Wako Pure Chemical Industries, Ltd.) and a QuantiChrom Urea Assay Kit (manufactured by Funakoshi Co., Ltd.), and sCr was measured using Lab Assay Creatinine (manufactured by Wako Pure Chemical Industries, Ltd.).\nIn Tables 13 to 15, the experimental results are expressed in mean±standard error. The RT-PCR results were corrected with the amount of β-Actin as an endogenous control gene. With reference to statistically significant difference, an unpaired test between two groups (Student's t-test) was conducted for comparison between two groups, and one-way analysis of variance was conducted and then a Dunnett test was conducted for comparison among multiple groups. Further, in the histopathological study, a Mann-Whitney U test was conducted, and in all cases, a significance level of 5% or less (P<0.05) was regarded as significant difference."}, "[3]": {"details": "0.01 mg/kg continuous femoral vein 30 min from 15 min after start of 45 min ischemia, mean±SE, 8 mice"}, "[4]": {"details": "0.1 mg/kg continuous femoral vein 30 min from 15 min after start of 45 min ischemia, mean±SE, 8 mice"}, "[5]": {"details": "0.1 mg/kg, acute renal failure model"}, "[6]": {"details": "1 mg/kg continuous femoral vein 30 min from 15 min after start of 45 min ischemia, mean±SE, 8 mice"}, "[7]": {"details": "1 mg/kg, acute renal failure model"}, "[8]": {"details": "10 mg/kg continuous femoral vein 30 min from 15 min after start of 45 min ischemia, mean±SE, 8 mice"}, "[9]": {"details": "0.01 mg/kg continuous femoral vein 30 min from 15 min after start of 45 min ischemia, mean±SE, 8 mice, 0.01 mg/kg"}, "[10]": {"details": "0.1 mg/kg continuous femoral vein 30 min from 15 min after start of 45 min ischemia, mean±SE, 8 mice, 0.1 mg/kg"}, "[11]": {"details": "1 mg/kg continuous femoral vein 30 min from 15 min after start of 45 min ischemia, mean±SE, 8 mice, 1 mg/kg"}, "[12]": {"details": "10 mg/kg continuous femoral vein 30 min from 15 min after start of 45 min ischemia, mean±SE, 8 mice, 10 mg/kg"}, "[13]": {"details": "Administration one day later (1 day): 10 mg/kg femoral vein after cisplatin 20 mg/kg, timing study Table 13"}, "[14]": {"details": "Administration two days later (2 day): 10 mg/kg femoral vein after cisplatin 20 mg/kg"}, "[15]": {"details": "Coadministration: 10 mg/kg femoral vein simultaneously with cisplatin 20 mg/kg, blood 3 days after cisplatin"}, "[16]": {"details": "TNF-α study Table 15: 10 mg/kg 1 day after cisplatin"}, "[17]": {"details": "dose relationship study Table 14: 0.1 mg/kg femoral vein 1 day after cisplatin, 0.1 mg/kg"}, "[18]": {"details": "dose relationship study Table 14: 1 mg/kg femoral vein 1 day after cisplatin, 1 mg/kg"}, "[19]": {"details": "dose relationship study Table 14: 1 mg/kg femoral vein 1 day after cisplatin, listed as SMPT-7, 1 mg/kg"}, "[20]": {"details": "dose relationship study Table 14: 10 mg/kg femoral vein 1 day after cisplatin, 10 mg/kg"}, "[21]": {"details": "dose relationship study Table 14: 10 mg/kg femoral vein 1 day after cisplatin, listed as SMPT-7, 10 mg/kg"}}}
{"smiles": "CC(C)=CCC/C(C)=C/CC[C@@]1(C)Oc2c(c(O)cc3c2CN(CCC[C@@H](C(=O)O)N2Cc4c(cc(O)c5c4O[C@](C)(CC/C=C(\\C)CCC=C(C)C)[C@@H](O)C5)C2=O)C3=O)C[C@@H]1O", "note": "[SMTP-7]", "values": [{"measurement": "BUN", "setting": "[1]; [3]", "value": "108.8 ± 26.6", "unit": "mg/dL"}, {"measurement": "Scr", "setting": "[1]; [3]", "value": "0.9 ± 0.2", "unit": "mg/dL"}, {"measurement": "Ualb", "setting": "[1]; 0.01 mg/kg, acute renal failure model", "value": "1.8 ± 0.3", "unit": "mg/h/kg"}, {"measurement": "BUN", "setting": "[1]; [4]", "value": "125.8 ± 28.7", "unit": "mg/dL"}, {"measurement": "Scr", "setting": "[1]; [4]", "value": "1.0 ± 0.3", "unit": "mg/dL"}, {"measurement": "UF", "setting": "[1]; [5]", "value": "0.0825 ± 0.0088", "unit": "mL/min/kg"}, {"measurement": "Ualb", "setting": "[1]; [5]", "value": "1.1 ± 0.3", "unit": "mg/h/kg"}, {"measurement": "BUN", "setting": "[1]; [6]", "value": "66.0 ± 11.3", "unit": "mg/dL"}, {"measurement": "Scr", "setting": "[1]; [6]", "value": "0.5 ± 0.1", "unit": "mg/dL"}, {"measurement": "UF", "setting": "[1]; [7]", "value": "0.0623 ± 0.0134", "unit": "mL/min/kg"}, {"measurement": "Ualb", "setting": "[1]; [7]", "value": "0.7 ± 0.2", "unit": "mg/h/kg"}, {"measurement": "BUN", "setting": "[1]; [8]", "value": "44.1 ± 2.9", "unit": "mg/dL"}, {"measurement": "Scr", "setting": "[1]; [8]", "value": "0.4 ± 0.0", "unit": "mg/dL"}, {"measurement": "Ualb", "setting": "[1]; 10 mg/kg, acute renal failure model", "value": "0.5 ± 0.1", "unit": "mg/h/kg"}, {"measurement": "Cer", "setting": "[1]; [9]", "value": "1.6 ± 0.3", "unit": "mL/min/kg"}, {"measurement": "Cer", "setting": "[1]; [10]", "value": "1.7 ± 0.4", "unit": "mL/min/kg"}, {"measurement": "Cer", "setting": "[1]; [11]", "value": "2.3 ± 0.4", "unit": "mL/min/kg"}, {"measurement": "Cer", "setting": "[1]; [12]", "value": "3.1 ± 0.2", "unit": "mL/min/kg"}, {"measurement": "FENa", "setting": "[1]; [9]", "value": "1.8±0.8", "unit": "%"}, {"measurement": "FENa", "setting": "[1]; [10]", "value": "2.3±1.0", "unit": "%"}, {"measurement": "FENa", "setting": "[1]; [11]", "value": "1.0±0.2", "unit": "%"}, {"measurement": "FENa", "setting": "[1]; [12]", "value": "0.7±0.1", "unit": "%"}, {"measurement": "KW", "setting": "[1]; [9]", "value": "14.5 ± 0.6", "unit": "mg/g"}, {"measurement": "KW", "setting": "[1]; [10]", "value": "13.6 ± 1.0", "unit": "mg/g"}, {"measurement": "KW", "setting": "[1]; [11]", "value": "11.2 ± 0.8", "unit": "mg/g"}, {"measurement": "KW", "setting": "[1]; [12]", "value": "11.1 ± 0.4", "unit": "mg/g"}, {"measurement": "Ualb", "setting": "[1]; urinary albumin, 0.01 mg/kg continuous femoral vein 30 min from 15 min after start of 45 min ischemia, mean±SE, 8 mice", "value": "1.8 ± 0.3", "unit": "mg/h/kg"}, {"measurement": "Ualb", "setting": "[1]; urinary albumin, 0.1 mg/kg continuous femoral vein 30 min from 15 min after start of 45 min ischemia, mean±SE, 8 mice", "value": "1.1 ± 0.3", "unit": "mg/h/kg"}, {"measurement": "Ualb", "setting": "[1]; urinary albumin, 1 mg/kg continuous femoral vein 30 min from 15 min after start of 45 min ischemia, mean±SE, 8 mice", "value": "0.7 ± 0.2", "unit": "mg/h/kg"}, {"measurement": "Ualb", "setting": "[1]; urinary albumin, 10 mg/kg continuous femoral vein 30 min from 15 min after start of 45 min ischemia, mean±SE, 8 mice", "value": "0.5 ± 0.1", "unit": "mg/h/kg"}, {"measurement": "BUN", "setting": "[2]; [13]", "value": "44.5 ± 2.19", "unit": "mg/dL"}, {"measurement": "sCr", "setting": "[2]; [13]", "value": "0.80 ± 0.07", "unit": "mg/dL"}, {"measurement": "BUN", "setting": "[2]; [14]", "value": "74.2 ± 17.8", "unit": "mg/dL"}, {"measurement": "sCr", "setting": "[2]; [14]", "value": "0.78 ± 0.18", "unit": "mg/dL"}, {"measurement": "BUN", "setting": "[2]; [15]", "value": "66.3 ± 9.23", "unit": "mg/dL"}, {"measurement": "sCr", "setting": "[2]; [15]", "value": "0.81 ± 0.09", "unit": "mg/dL"}, {"measurement": "BUN", "setting": "[2]; [16]", "value": "55.9 ± 5.20", "unit": "mg/dL"}, {"measurement": "sCr", "setting": "[2]; [16]", "value": "0.41 ± 0.07", "unit": "mg/dL"}, {"measurement": "BUN", "setting": "[2]; [17]", "value": "57.0 ± 5.47", "unit": "mg/dL"}, {"measurement": "sCr", "setting": "[2]; [17]", "value": "0.78 ± 0.08", "unit": "mg/dL"}, {"measurement": "BUN", "setting": "[2]; [18]", "value": "45.0 ± 6.28", "unit": "mg/dL"}, {"measurement": "sCr", "setting": "[2]; [18]", "value": "0.65 ± 0.09", "unit": "mg/dL"}, {"measurement": "BUN", "setting": "[2]; [19]", "value": "45.0 ± 6.28", "unit": "mg/dL"}, {"measurement": "sCr", "setting": "[2]; [19]", "value": "0.65 ± 0.09", "unit": "mg/dL"}, {"measurement": "BUN", "setting": "[2]; [20]", "value": "32.1 ± 4.63", "unit": "mg/dL"}, {"measurement": "sCr", "setting": "[2]; [20]", "value": "0.53 ± 0.03", "unit": "mg/dL"}, {"measurement": "BUN", "setting": "[2]; [21]", "value": "32.1 ± 4.63", "unit": "mg/dL"}, {"measurement": "sCr", "setting": "[2]; [21]", "value": "0.53 ± 0.03", "unit": "mg/dL"}]}
